# Measurements taken from patent US20190255146A1, “POLYPEPTIDES FOR IMPROVED RESPONSE TO ANTI-CANCER THERAPY” (MUSC FOUNDATION FOR RESEARCH DEVELOPMENT, priority 2016, published 2019).
# T1: retinoblastoma protein (RB) (UniProt P06400 2-928, limits assumed)
# T1 construct: whole, on cells; Endogenous intracellular protein, detected with anti-RB antibody; also called pRB
# T1 sequence (looked up): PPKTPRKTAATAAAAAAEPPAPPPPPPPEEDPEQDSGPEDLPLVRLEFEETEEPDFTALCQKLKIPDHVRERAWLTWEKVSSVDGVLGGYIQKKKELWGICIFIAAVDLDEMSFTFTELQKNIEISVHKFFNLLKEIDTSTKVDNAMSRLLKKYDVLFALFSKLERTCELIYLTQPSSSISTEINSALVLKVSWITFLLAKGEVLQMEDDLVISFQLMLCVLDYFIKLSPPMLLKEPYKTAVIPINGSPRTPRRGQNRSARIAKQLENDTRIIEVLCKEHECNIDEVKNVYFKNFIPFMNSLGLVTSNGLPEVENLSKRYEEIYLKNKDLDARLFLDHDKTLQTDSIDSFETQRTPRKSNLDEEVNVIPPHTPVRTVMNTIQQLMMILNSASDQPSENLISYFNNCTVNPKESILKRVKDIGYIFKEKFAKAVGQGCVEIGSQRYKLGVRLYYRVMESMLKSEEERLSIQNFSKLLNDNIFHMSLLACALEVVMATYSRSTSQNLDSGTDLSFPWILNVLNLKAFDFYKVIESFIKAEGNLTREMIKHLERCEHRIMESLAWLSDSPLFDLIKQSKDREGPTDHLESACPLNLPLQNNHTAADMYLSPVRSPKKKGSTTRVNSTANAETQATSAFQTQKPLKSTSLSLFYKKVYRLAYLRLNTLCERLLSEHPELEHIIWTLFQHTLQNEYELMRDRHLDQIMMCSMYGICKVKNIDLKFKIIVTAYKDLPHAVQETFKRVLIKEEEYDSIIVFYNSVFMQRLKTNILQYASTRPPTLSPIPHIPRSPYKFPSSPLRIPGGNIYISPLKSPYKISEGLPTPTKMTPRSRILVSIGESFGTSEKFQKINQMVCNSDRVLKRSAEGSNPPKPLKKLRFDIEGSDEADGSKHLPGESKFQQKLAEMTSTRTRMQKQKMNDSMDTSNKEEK
# B1: dimerization domain deleted mutant of E2F5, GFP-tagged (E2F5^Δ84-177-GFP) (other)
# chain: MAAAEPASSGQQAPAGQGQGQRPPPQPPQAQAPQPPPPPQLGGAGGGSSRHEKSLGLLTTKFVSLLQEAKDGVLDLKAAADTLICNCFNGDTLLAIQAPSGTQLEVPIPEMGQNGQKKYQINLKSHSGPIHVLLINKESSSSKPVVFPVPPPDDLTQPSSQSLTPVTPQKSSMATQNLPEQHVSERSQALQQTSATDISSAGSISGDIIDELMSSDVFPLLRLSPTPADDYNFNLDDNEGVCDLFDVQILNY
# notes: Ectopically expressed in cells; not shown: GFP tag
# Experiments:
# UM-SCC-22A cells = assay: Growth inhibition in culture, IC50 determination by MTT assay; assay type: cell-based; conditions: UM-SCC-22A (HPV−) cells, 48 h; read-out: IC50 (concentration that inhibited growth by 50%)
# Description: (§1) IC50 determination by MTT assay. Cells were plated in 96-well plates and allowed to adhere for 20 h, then treated with the indicated concentrations of drug. After 48 h treatment, the MTT assay (ATCC) was performed as described previously (Sentelle et al, 2012).
# UM-SCC-47 cells = assay: as above; assay type: cell-based
# Description: as §1
# [1] = tested on: UM-SCC-47-derived xenograft tumors; assay: HPV(+) UM-SCC-47-derived xenograft tumor growth in SCID mice; assay type: in vivo; conditions: HPV(+) UM-SCC-47 xenografts, cisplatin 3.5 mg/kg for two weeks, tumor volumes days 0 and 14
# Description: (§2) To determine whether HPV(+) compared to HPV(−) HNSCC cells are more sensitive to stress-mediated growth inhibition in response to chemotherapeutic drugs, it was first established HPV(+) UM-SCC-47- and HPV(−) UM-SCC-22A-derived xenograft tumors in SCID mice. After the xenograft-derived tumors were ˜75-100 mm^3, the mice were treated with cisplatin (3.5 mg/kg) for two weeks, which is below its maximum tolerated doses (van Moorsel et al, 1999). Then, tumor volumes were measured at days 0 and 14 of treatment. […] After tumor growth measurements in the mice were taken, the tumors were surgically removed and the effects of cisplatin on CerS1-6 mRNA were measured by qRT-PCR.
# (§3) In vivo studies. […] Age- and sex-matched mice were used. […] Tumor volume was measured using calipers.
# Drp1 [2] = assay: Drp1 oligomerization by Western blotting without reducing agents; assay type: cell-based; conditions: HPV(+) UM-SCC47 cells
# Description: FIGS. 7A-F. E2F5/Drp1 complex enhances HPV-E7/ceramide-dependent lethal mitophagy. (A) UM-SCC47 cells were treated with cisplatin or C18-pyr-cer and Western blotting was performed with cell lysates in the absence of reducing agents in the lysing buffer to detect monomeric and dimeric Drp1 protein abundance compared to vehicle-treated controls. Actin was used as a loading control. (B-C) Cell death was assessed by trypan blue exclusion assay in UM-SCC47 cells expressing dominant-negative Drp1 mutant (K38A-DRP1) and treated with C18-pyr-cer (B) or cisplatin (C) compared to vector-transfected controls. […] (D-E) Association between E2F5 and Drp1 in response to ceramide stress (C18-pyr-cer) was measured in UM-SCC-47 cells using PLA (D) or immunoprecipitation followed by Western blotting (E) with anti-Drp1 or anti-E2F5 antibodies. IgG was used as a control. […] PLA signals were quantified as described by the manufacturer using the PLA quantification software. […] Effects of siRNA-mediated HPV-E6/E7 knockdown on pRB, HPV-E7 and p53 protein abundance were also confirmed by Western blotting compared to Scr-siRNA-transfected controls in the absence/presence of C18-pyr-cer (right panel). Total RB was used a loading control (Rb band, upper panel).
# Immunoblotting. Cells were lysed in RIPA buffer plus protease inhibitor cocktail on ice for 15 minutes then centrifuged. […]
# CerS1-6 mRNA = CerS1-6 mRNA by qRT-PCR in HPV(+) UM-SCC-47 xenograft-derived tumors; assay type: in vivo, mice; conditions: day 14 versus day 0
# Description: as §2
# Quantitative RT-PCR. RNA was extracted from cell pellets using RNeasy kit (Qiagen) per the manufacturer's instructions. cDNA was generated using equal amounts of RNA from each sample and iScript cDNA synthesis kit (Bio-Rad) per manufacturer's instructions. Reactions were carried out using SsoFast probes mix (Bio-Rad) and TaqMan primer probes (ThermoFisher Scientific) in a StepOne Plus qPCR cycler as described by the manufacturer.
# as §3
# CerS1 = CerS1 localization, Western blotting of cytoplasm versus mitochondria enriched fractions of UM-SCC-47 cells; assay type: cell-based; conditions: cisplatin 1 and 4 h versus 0 h
# Description: FIGS. 2A-G. HPV-E6 enhances chemotherapy-mediated cellular stress and CerS1/ceramide-mediated lethal mitophagy. (A-B) Effects of siRNA-mediated knockdown of HPV-E6/E7 on HPV(+) UM-SCC-47 cell death was assessed by MTT compared to Scr-siRNA-transfected and/or vehicle-treated controls. Successful knockdown of HPV-E6/E7 proteins were confirmed by Western blot analysis (B). […] (C) Effects of ectopic expression of HPV-E6 versus E7 on HPV(−) UM-SCC-22A cell death were measured by MTT. HPV-E6/E7 protein abundance was measured by Western blotting. […] (D) Effects of shRNA-mediated knockdown of CerS1 on mitophagy in response to cisplatin were measured by live cell imaging confocal micrographs of UM-SCC-47 cells stained with LTG and MTR. Scr-shRNA-transfected and/or vehicle-treated cells were used as controls. […] Images were quantified using ImageJ. (E) Cytoplasmic versus mitochondrial localization of CerS1 in the presence/absence of cisplatin at 0, 1, and 4 h was measured by Western blotting using anti-CerS1 antibody in cytoplasm (cyto)—versus mitochondria (mito)-enriched cellular fractions of UM-SCC-47 cells. Actin and Tom 20 were used as controls for cytoplasm- and mitochondria-enriched fractions, respectively. […] (F-G) Effects of shRNA-mediated knockdown of CerS6, confirmed by Western blotting (F), on UM-SCC-47 cell death in response to cisplatin were measured by trypan blue exclusion assay (G). […]
# LC3B = LC3B lipidation by Western blotting in UM-SCC-47 cell extracts; assay type: cell-based; conditions: UM-SCC-47 cells, versus vehicle
# Description: FIGS. 12A-C. Knockdown of autophagy inducer LC3 inhibits cisplatin-mediated cell death in HPV(+) HNSCC cells. (A) Induction of autophagy in response to cisplatin was assessed by detection of LC3B lipidation using Western blotting in HPV(+) UM-SCC-47 cell extracts with anti-LC3B antibody compared to vehicle (veh) treated controls. Actin was used as a loading control. […] Samples shown are from the same representative blot but not in contiguous lanes. (B-C) Effects of siRNA-mediated knockdown of LC3B on cisplatin-mediated cell death were measured and IC50 concentrations were calculated by MTT assays compared to Scr-siRNA-transfected controls. […] Si-RNA-mediated knockdown of LC3B was confirmed using Western blotting with anti-LC3B antibody compared to Scr-siRNA-transfected controls (C). Actin was used as a loading control.
# (§4) Immunoblotting. Cells were lysed in RIPA buffer plus protease inhibitor cocktail on ice for 15 minutes then centrifuged. 30ug of protein from the supernatant were run on Criterion™ TGX™ Precast Gels (Bio-Rad).
# [3] = tested on: UM-SCC-22A-derived xenograft tumors; assay: HPV(−) UM-SCC-22A-derived xenograft tumor growth in SCID mice; assay type: in vivo
# Description: as §2
# Eight arginine residues (R8) were included on the N-terminus to enhance cell penetration of the E2F5 peptide (Rancher and Ryu, 2015).
# In vivo studies. Severe combined immunodeficient (SCID) mice were purchased from Jackson Laboratories. Age- and sex-matched mice were used. All animal protocols were approved by the Institutional Animal Care and Use Committee at the Medical University of South Carolina. UM-SCC22A or UM-SCC47 cells (75,000) were implanted into the flanks of SCID mice (n=5-8 mice). When the tumors were palpable, the mice were treated every three days with 3.5 mg/kg cisplatin, 20 mg/kg C18-pyr-cer, or corresponding amount of vehicle control and/or 3.76 μg E2F5-peptide or scrambled control peptide. Tumor volume was measured using calipers. At the end of the 14-day treatment, the mice were euthanized and tumor tissues were collected (Sentelle et al, 2007; Saddoughi et al, 2013).
# Drp1 [4] = biological target: T2, Drp1 (Homo sapiens, UniProt O00429); assay: Drp1 recruitment to mitochondria in HPV(−) UM-SCC-22A cells (Western blotting of mitochondria-enriched fractions); assay type: cell-based; conditions: 5 uM peptide, 20 uM C18-pyr-cer, 1.5 hours
# T2 construct: Western blotting using whole cell (UM-SCC-22A) lysates versus mitochondria-enriched fractions; endogenous in cells; host or cells: UM-SCC-22A
# T2 sequence (O00429 whole entry): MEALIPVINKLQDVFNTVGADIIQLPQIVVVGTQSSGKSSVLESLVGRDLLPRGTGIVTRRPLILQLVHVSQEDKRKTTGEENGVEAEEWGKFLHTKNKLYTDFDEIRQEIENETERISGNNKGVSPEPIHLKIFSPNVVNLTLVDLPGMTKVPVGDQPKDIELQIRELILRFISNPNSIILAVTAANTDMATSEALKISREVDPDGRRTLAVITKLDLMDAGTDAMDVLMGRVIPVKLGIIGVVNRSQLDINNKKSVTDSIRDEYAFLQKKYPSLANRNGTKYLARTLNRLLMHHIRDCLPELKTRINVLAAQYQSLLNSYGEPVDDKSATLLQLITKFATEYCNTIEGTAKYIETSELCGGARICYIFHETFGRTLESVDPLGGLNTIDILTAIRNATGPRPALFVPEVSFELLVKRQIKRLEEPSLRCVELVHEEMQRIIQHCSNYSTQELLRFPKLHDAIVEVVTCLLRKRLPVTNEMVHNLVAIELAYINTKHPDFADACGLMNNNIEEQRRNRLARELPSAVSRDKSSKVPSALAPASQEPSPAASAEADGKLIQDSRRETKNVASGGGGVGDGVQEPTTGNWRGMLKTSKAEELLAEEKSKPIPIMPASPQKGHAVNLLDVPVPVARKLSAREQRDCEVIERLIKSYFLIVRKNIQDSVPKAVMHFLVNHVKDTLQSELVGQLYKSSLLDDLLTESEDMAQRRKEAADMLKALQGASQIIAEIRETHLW
# Description: Images were quantified using FIJI.
# as §4
# Cell fractionation. Cells were treated with 40 uM cisplatin or vehicle for eight hours, 20 uM C18-pyr-cer or vehicle and/or 5 uM scr-pept or E2F5-pept for 1.5 hours. Mitochondria isolation kit (ThermoFisher Scientific) was used as described by the manufacturer.
# [5] = biological target: T1, retinoblastoma protein (RB); assay: PLA with anti-GFP and anti-RB antibodies, UM-SCC-22A cells
# Description: PLA images were quantified using the PLA software as described by the manufacturer. […] Vector-GFP was used as a control (right panel, C).
molecule,measurement,setting,value
N.N.[Cl][Pt][Cl] [cisplatin],IC50,UM-SCC-22A cells,28 µM
same,IC50,"UM-SCC-47 cells; UM-SCC-47 (HPV+) cells, 48 h, read-out: IC50 (concentration that inhibited growth by 50%)",8 µM
same,reduction of cisplatin-mediated growth inhibition by knockdown of CerS1,"UM-SCC-47 cells; UM-SCC-47 cells, CerS1 shRNA versus Scr-shRNA, MTT",~4 fold
same,resistance to cisplatin-mediated growth inhibition upon knockdown of E6 and E7,"UM-SCC-47 cells; UM-SCC-47 cells, HPV-E6/E7 siRNA versus Scr-siRNA, MTT",~8 fold
same,"sensitivity for drug-induced growth inhibition/cell death, UM-SCC-47 compared to UM-SCC-22A cells",UM-SCC-47 cells; cells in culture,~3 fold
same,inhibition of growth of xenografts in response to cisplatin,[1],~75%
same,Drp1 oligomerization and/or activation,Drp1 [2],Drp1 oligomerization and/or activation was observed
same,CerS1 and CerS6 mRNA in tumors,CerS1-6 mRNA,induced CerS1 and CerS6 mRNA
same,accumulation of CerS1 in mitochondria,CerS1,increased accumulation of CerS1 in mitochondria
same,LC3B lipidation (marker of autophagy induction),LC3B,Increased LC3B lipidation
same,tumor suppression of xenografts,"[3]; HPV(−) UM-SCC-22A xenografts, cisplatin 3.5 mg/kg for two weeks",no detectable tumor suppression
Biotin-RRRRRRRR-LILFVIKLHQDVNDMRNSNQDQTQSEDRESKWY [scr-pept],ceramide-induced Drp1 recruitment to mitochondria,Drp1 [4],not
same,tumor growth,"[3]; UM-SCC-22A xenografts, 3.76 μg peptide, absence/presence of cisplatin 3.5 mg/kg every 3 days for 2 weeks",no effect
B1,binding result,[5],binds
